Drawing on PubChem BioAssay (NCI), this text covers TGI and GI50 for eleven compounds.

Structures are written as SMILES. Values joined by “and” are separate entries in the source; they are usually repeats but may differ in a detail not shown here. Equal entries are not always repeated.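 1) Cells in 96-well plates. 2) Compound, 48 h, 5 concentrations. 3) Linear interpolation between surrounding doses. 4) Unreached endpoint = highest concentration. At the GI50, growth is halved. TGI marks complete inhibition of growth.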

Test systems include A549 NSCLC; HOP-92 NSCLC; MALME-3M melanoma; NCI-H522 lung; RPMI-8226 leukemia; SK-MEL-5 melanoma; SK-OV-3 ovarian; SN12C renal; SW-620 colon; UO-31 renal.
Holding throughout (assay): NCI-60 cell line screen, 48 h

On to `COc1ccc(C(=O)Nc2ccc(S(=O)(=O)NCC(=O)O)cc2)cc1`, for which the TGI in the experiment on A549 NSCLC, in the experiment on HOP-92 NSCLC, in the experiment on MALME-3M melanoma, with NCI-H522 lung, in the experiment on RPMI-8226 leukemia and in the experiment on SK-MEL-5 melanoma was above 100 µM each time. The TGI in the experiment on SK-OV-3 ovarian, in the experiment on SN12C renal, in the experiment on SW-620 colon and in the experiment on UO-31 renal was above 100 µM each time.

For `C=CC1(c2ccccc2Cl)N/C(=C/OCC)CO1` (stereo unspecified), the TGI with A549 NSCLC is above 100 µM; in the experiment on HOP-92 NSCLC, above 100 µM; in the experiment on MALME-3M melanoma it was above 100 µM; in the experiment with NCI-H522 lung it was above 100 µM; in the experiment on RPMI-8226 leukemia it was 65 µM; in the experiment with SK-MEL-5 melanoma it was above 100 µM. Moreover, the TGI is above 100 µM with SK-OV-3 ovarian, above 100 µM in the experiment on SN12C renal, 28.4 µM in the experiment on SW-620 colon and above 100 µM in the experiment on UO-31 renal.

On to `COc1ccc2[nH]c3c(C)c4cc[n+](C)cc4c(C)c3c2c1`, for which the GI50 in the experiment on HOP-92 NSCLC was 239 nM and 1550 nM; with MALME-3M melanoma it was 624 nM and 2380 nM; with NCI-H522 lung it was 167 nM and 82.5 nM; in the experiment on SK-MEL-5 melanoma it was 2070 nM; with SK-OV-3 ovarian, 4310 nM and 1570 nM; in the experiment with SN12C renal, 48.3 nM and 69.1 nM. Besides, the GI50 in the experiment with SW-620 colon was 280 nM; in the experiment with UO-31 renal it was 13.6 µM and 15.6 µM. The figures for the TGI with SK-MEL-5 melanoma and with SN12C renal were 7.15 µM [middle of 4 runs] and 797 nM [middle of 4 runs], respectively.

For `FC(F)(F)c1[nH]ncc1-c1nc2c(N3CCCCC3)cc3[nH]ncc3c2c2c1CCCC2`, the GI50 was 816 nM in the experiment with A549 NSCLC; 290 nM with HOP-92 NSCLC; 843 nM in the experiment on MALME-3M melanoma; 485 nM in the experiment on NCI-H522 lung; 534 nM in the experiment with RPMI-8226 leukemia; 637 nM with SK-MEL-5 melanoma. For the same compound, the GI50 in the experiment with SK-OV-3 ovarian was 523 nM; in the experiment with SN12C renal, 878 nM; in the experiment on SW-620 colon, 556 nM; in the experiment on UO-31 renal it was 0.873 µM. Further, the TGI was above 12.5 µM with A549 NSCLC; 1.62 µM in the experiment with HOP-92 NSCLC; 2.14 µM in the experiment with MALME-3M melanoma; 3.24 µM in the experiment on NCI-H522 lung; 2.44 µM in the experiment on RPMI-8226 leukemia; 1.5 µM in the experiment on SK-MEL-5 melanoma. Further, the TGI with SK-OV-3 ovarian was 4.22 µM; in the experiment on SN12C renal it was above 15.7 µM; with SW-620 colon, 2.67 µM; in the experiment with UO-31 renal it was 3.01 µM.

With `Nc1c(S(=O)(=O)O)cc(Nc2cccc(S(N)(=O)=O)c2)c2c1C(=O)c1ccccc1C2=O`, the TGI with A549 NSCLC is above 100 µM; in the experiment with HOP-92 NSCLC it was above 100 µM; in the experiment with MALME-3M melanoma, 87.9 µM; in the experiment with NCI-H522 lung, above 100 µM; in the experiment on RPMI-8226 leukemia, above 100 µM; in the experiment with SK-MEL-5 melanoma it was above 100 µM. The TGI with SK-OV-3 ovarian is 84.6 µM; in the experiment on SN12C renal, above 100 µM; in the experiment on SW-620 colon, above 100 µM; in the experiment with UO-31 renal it was above 100 µM.

`O=c1c2[nH]c3ccccc3c2nc2n1CCS2`: the GI50 in the experiment on A549 NSCLC is above 100000 nM; in the experiment on HOP-92 NSCLC, 4250 nM; with MALME-3M melanoma, 69900 nM; in the experiment with NCI-H522 lung, above 100000 nM; in the experiment with RPMI-8226 leukemia, above 100000 nM; in the experiment on SK-MEL-5 melanoma it was above 100000 nM. The GI50 is above 100000 nM in the experiment with SK-OV-3 ovarian, above 100000 nM in the experiment with SN12C renal, above 100000 nM with SW-620 colon and 47.2 µM with UO-31 renal. In addition, the TGI with A549 NSCLC, with HOP-92 NSCLC, with MALME-3M melanoma, with NCI-H522 lung, in the experiment with RPMI-8226 leukemia and in the experiment on SK-MEL-5 melanoma was above 100 µM in each case. The TGI in the experiment with SK-OV-3 ovarian, with SN12C renal, in the experiment on SW-620 colon and in the experiment with UO-31 renal was above 100 µM throughout.

For the compound `CN1C(=O)N(C)C2C1NN=c1s/c(=C\c3c[nH]c4ccccc34)c(=O)n12` (stereo unspecified), the GI50 with A549 NSCLC is 109 nM; with HOP-92 NSCLC, 360 nM; with MALME-3M melanoma, 68.9 nM; with NCI-H522 lung, 33.1 nM; in the experiment with RPMI-8226 leukemia, 34.6 nM; in the experiment on SK-MEL-5 melanoma, 34.7 nM. Besides, the GI50 with SK-OV-3 ovarian is 82 nM; with SN12C renal, 71.4 nM; with SW-620 colon, 44.2 nM. Besides, the TGI is above 100 µM in the experiment with A549 NSCLC; above 100 µM in the experiment with HOP-92 NSCLC; above 100 µM in the experiment on MALME-3M melanoma; 18.9 µM with NCI-H522 lung; 1.55 µM in the experiment with RPMI-8226 leukemia; 0.184 µM in the experiment with SK-MEL-5 melanoma. In addition, the TGI with SK-OV-3 ovarian, in the experiment on SN12C renal and in the experiment on SW-620 colon was above 100 µM each time.

In the case of `CN(C)CCNC(=O)c1cccc2ccc(-c3cccnc3)nc12`, the TGI was determined as 32.3 µM with A549 NSCLC; 14.4 µM in the experiment on HOP-92 NSCLC; 16.8 µM with MALME-3M melanoma; 12.9 µM in the experiment on SK-MEL-5 melanoma; 36.9 µM with SK-OV-3 ovarian; 23.1 µM in the experiment with SN12C renal. In addition, the values for the TGI with SW-620 colon and with UO-31 renal were 27.5 µM and 9.71 µM, respectively.

For `C/C(=C1/N=C(c2ccccc2)OC1=O)c1ccc(C)cc1`, the TGI in the experiment on A549 NSCLC, in the experiment with HOP-92 NSCLC, in the experiment on MALME-3M melanoma, in the experiment on NCI-H522 lung, in the experiment with RPMI-8226 leukemia and in the experiment on SK-MEL-5 melanoma was above 100 µM in each case. The TGI in the experiment on SK-OV-3 ovarian, in the experiment on SN12C renal and with SW-620 colon was above 100 µM throughout.

Take `O=C(c1ccco1)c1ccccc1C(=O)c1ccco1`: the TGI with A549 NSCLC, in the experiment with HOP-92 NSCLC, in the experiment with MALME-3M melanoma, in the experiment with SK-MEL-5 melanoma, in the experiment with SN12C renal and with SW-620 colon was above 100 µM throughout. The TGI in the experiment with UO-31 renal was above 100 µM.

Take `Cc1ccc(/C=N/NS(=O)(=O)c2ccccc2)cc1`: the TGI in the experiment on A549 NSCLC, in the experiment with HOP-92 NSCLC, in the experiment with MALME-3M melanoma, with RPMI-8226 leukemia, with SK-MEL-5 melanoma and in the experiment on SK-OV-3 ovarian was above 100 µM each time. Also, the TGI with SN12C renal, in the experiment with SW-620 colon and in the experiment with UO-31 renal was above 100 µM in each case.
